Laboratory results from patent US11807693B2 (priority 2014, dated 2023).
Starred links: 1 amine or outer side, 2 acyl side, 3 side chain; linkers in the order of their positions; H or OH if unused. Non-standard residues stand in square brackets, D forms with d. Residues, ends and D or L forms follow the SMILES beside them. *: point of attachment. dBip = N[C@H](Cc1ccc(-c2ccccc2)cc1)C(=O)O; Oic = O=C(O)[C@@H]1C[C@@H]2CCCC[C@@H]2N1; Phe(4-Cl) = N[C@@H](Cc1ccc(Cl)cc1)C(=O)O; Phe(4-I) = N[C@@H](Cc1ccc(I)cc1)C(=O)O; γGlu = O=C(O)[C@H](CCC(=O)[*:2])N[*:1]; NMeR = CN[C@@H](CCCNC(=N)N)C(=O)O; Palmitoyl = CCCCCCCCCCCCCCCC(=O)*; Tridecanoyl = CCCCCCCCCCCCC(=O)*; hArg = N=C(N)NCCCC[C@H](N)C(=O)O; dTic = O=C(O)[C@H]1Cc2ccccc2CN1; Cha = N[C@@H](CC1CCCCC1)C(=O)O; NMeL = CN[C@@H](CC(C)C)C(=O)O; Pip = O=C(O)[C@@H]1CCCCN1; Nle = CCCC[C@H](N)C(=O)O; AEEA = NCCOCCOCC(=O)O

Columns and labels:
human APJ receptor = target: T1, human APJ receptor (Homo sapiens, UniProt P35414); test: [35S] GTPγS assay, human APJ receptor; assay type: biochemical
T1 construct: expressed in transfected cells
T1 sequence (P35414 1-380): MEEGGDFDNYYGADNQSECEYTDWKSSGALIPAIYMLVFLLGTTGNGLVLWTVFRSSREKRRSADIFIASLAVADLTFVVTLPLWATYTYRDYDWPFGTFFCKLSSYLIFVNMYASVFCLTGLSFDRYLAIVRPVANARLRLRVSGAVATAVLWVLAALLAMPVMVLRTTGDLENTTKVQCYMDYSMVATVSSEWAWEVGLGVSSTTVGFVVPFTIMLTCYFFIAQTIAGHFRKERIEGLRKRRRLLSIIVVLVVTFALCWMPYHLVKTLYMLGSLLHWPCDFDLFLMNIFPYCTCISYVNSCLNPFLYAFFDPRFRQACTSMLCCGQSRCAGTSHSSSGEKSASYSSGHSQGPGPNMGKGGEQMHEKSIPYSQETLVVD

[1] = In vitro stability in rat plasma; assay type: in vitro ADME
Method in brief: (§1)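 Peptide remaining was followed by high-resolution LC-MS of methanol-quenched, centrifuged samples with internal standard. Incubations were at 37° C. over 4 hr, peptides at 5 μM final in rat plasma or in rat liver or kidney homogenate.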

rat APJ receptor = target: T2, rat APJ receptor (Rattus norvegicus, UniProt Q9JHG3); test: [35S] GTPγS assay, rat APJ receptor; assay type: biochemical; conditions: rat APJ receptor, read-out: EC50 Rat APJ Receptor
T2 construct: expressed in transfected cells
T2 sequence (Q9JHG3 1-377): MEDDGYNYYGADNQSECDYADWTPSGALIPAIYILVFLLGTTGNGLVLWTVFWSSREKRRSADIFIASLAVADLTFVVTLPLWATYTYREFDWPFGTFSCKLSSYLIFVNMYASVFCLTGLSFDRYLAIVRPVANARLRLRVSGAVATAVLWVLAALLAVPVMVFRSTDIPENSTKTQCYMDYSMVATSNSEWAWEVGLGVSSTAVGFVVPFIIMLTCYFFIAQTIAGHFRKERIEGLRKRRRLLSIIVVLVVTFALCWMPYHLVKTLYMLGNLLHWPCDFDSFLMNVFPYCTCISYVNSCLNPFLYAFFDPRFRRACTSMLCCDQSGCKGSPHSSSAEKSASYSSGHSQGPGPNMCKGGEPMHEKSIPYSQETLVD
Description: The membranes were incubated with modified peptides in the assay buffer. […] Bound [^35S] GTPγS was separated from free radiolabel by filtration. The filter bound radioactivity was determined by liquid scintillation counting.

[2] = In vitro stability in rat liver homogenate; assay type: in vitro ADME; conditions: tissue homogenate
Method in brief: as §1

Compound	EC50 (human APJ receptor; human APJ receptor)	remaining at 4 h, 5 μM [1]	EC50 (rat APJ receptor)	EC50 (human APJ receptor; Table 16)	remaining at 4 h, 5 μM [2]
CC(=O)N[C@@H](CCCCNC(=N)N)C(=O)N[C@H](CCCNC(=N)N)C(=O)N[C@@H](CCC(N)=O)C(=O)N[C@@H](CCC(=O)O)C(=O)N1CCC[C@H]1C(=O)N[C@H](CCCNC(=N)N)C(=O)N(C)[C@@H](CC(C)C)C(=O)N[C@@H](CO)C(=O)N[C@@H](Cc1c[nH]cn1)C(=O)N[C@@H](CCCCN)C(=O)NCC(=O)N1[C@H](C(=O)N[C@@H](Cc2ccc(I)cc2)C(=O)N2CCC[C@H]2C(=O)N[C@H](Cc2ccc(-c3ccccc3)cc2)C(=O)O)C[C@@H]2CCCC[C@@H]21 [compound 77] (Ac-[hArg][dR]QEP[dR][NMeL]SHKG[Oic][Phe(4-I)]P[dBip]-OH)	4.92 nM		2.85 nM		
CC(=O)N[C@@H](CCCCNC(=N)N)C(=O)N[C@H](CCCNC(=N)N)C(=O)N[C@@H](CCC(N)=O)C(=O)N[C@@H](CCCCNC(=N)N)C(=O)N1CCC[C@H]1C(=O)N[C@H](CCCNC(=N)N)C(=O)N(C)[C@@H](CC(C)C)C(=O)N[C@@H](CO)C(=O)N[C@@H](Cc1c[nH]cn1)C(=O)N[C@@H](CCCCN)C(=O)NCC(=O)N[C@@H](CCC(=O)O)C(=O)N[C@@H](Cc1ccc(I)cc1)C(=O)N1CCC[C@H]1C(=O)N[C@H](Cc1ccc(-c2ccccc2)cc1)C(=O)O [compound 85] (Ac-[hArg][dR]Q[hArg]P[dR][NMeL]SHKGE[Phe(4-I)]P[dBip]-OH)	> 4170 nM		> 4170 nM		
CCCCCCCCCCCCC(=O)N[C@@H](CCC(=O)NCCOCCOCC(=O)NCCOCCOCC(=O)N[C@@H](CCC(N)=O)C(=O)N[C@@H](CCCNC(=N)N)C(=O)N1CCC[C@H]1C(=O)N(C)[C@@H](CCCNC(=N)N)C(=O)N[C@@H](CC1CCCCC1)C(=O)N[C@@H](CO)C(=O)N[C@@H](Cc1c[nH]cn1)C(=O)N[C@@H](CCCCN)C(=O)NCC(=O)N1CCCC[C@H]1C(=O)N[C@@H](CCCC)C(=O)N1CCC[C@H]1C(=O)N[C@@H](Cc1ccc(Cl)cc1)C(=O)O)C(=O)O [compound 416] ({Tridecanoyl-γGlu-AEEA-AEEA}-QRP[NMeR][Cha]SHKG[Pip][Nle]P[Phe(4-Cl)]-OH)		57.7%		0.192 nM	

Next, values leading:

EC50 (human APJ receptor; human APJ receptor)	remaining at 4 h, 5 μM [1]	EC50 (rat APJ receptor)	EC50 (human APJ receptor; Table 16)	remaining at 4 h, 5 μM [2]	Compound
1.52 nM	> 90%				CCCCCCCCCCCCCCCC(=O)N[C@@H](CCC(=O)NCCOCCOCC(=O)NCCOCCOCC(=O)N[C@H](CCC(N)=O)C(=O)N[C@@H](CCCNC(=N)N)C(=O)N1CCC[C@H]1C(=O)N(C)[C@@H](CCCNC(=N)N)C(=O)N[C@@H](CC1CCCCC1)C(=O)N[C@@H](CO)C(=O)N[C@@H](Cc1c[nH]cn1)C(=O)N[C@@H](CCCCN)C(=O)NCC(=O)N1CCCC[C@H]1C(=O)N[C@@H](CCCC)C(=O)N1CCCC(C(=O)N[C@@H](Cc2ccc(Cl)cc2)C(=O)O)C1)C(=O)O (single isomer, unassigned) [compound 588]
	52%		0.0229 nM	< 1%	CCCCCCCCCCCCC(=O)N[C@@H](CCC(=O)NCCOCCOCC(=O)NCCOCCOCC(=O)N[C@@H](CCC(N)=O)C(=O)N[C@@H](CCCNC(=N)N)C(=O)N1CCC[C@H]1C(=O)N(C)[C@@H](CCCCNC(=N)N)C(=O)N[C@@H](CC(C)C)C(=O)N[C@@H](CO)C(=O)N[C@@H](Cc1c[nH]cn1)C(=O)N[C@@H](CCCCN)C(=O)NCC(=O)N1CCC[C@H]1C(=O)N[C@@H](CCCC)C(=O)N1CCC[C@H]1C(=O)N[C@@H](Cc1ccc2ccccc2c1)C(=O)O)C(=O)O [compound 471]
0.44 nM					CCCCCCCCCCCCCCCC(=O)N[C@@H](CCC(=O)NCCOCCOCC(=O)NCCOCCOCC(=O)N[C@H](CCC(N)=O)C(=O)N[C@@H](CCCNC(=N)N)C(=O)N1CCC[C@H]1C(=O)N(C)[C@@H](CCCNC(=N)N)C(=O)N[C@@H](CC1CCCCC1)C(=O)N[C@@H](CO)C(=O)N[C@@H](Cc1c[nH]cn1)C(=O)N[C@@H](CCCCN)C(=O)NCC(=O)N1CCCC[C@H]1C(=O)N[C@@H](CCCC)C(=O)N1CCC[C@H]1C(=O)N1Cc2ccccc2C[C@@H]1C(=O)O)C(=O)O [compound 599] ({Palmitoyl-γGlu-AEEA-AEEA}-[dQ]RP[NMeR][Cha]SHKG[Pip][Nle]P[dTic]-OH)
